Source: patent US8916553B2 (Bristol-Myers Squibb Company, priority 2010, dated 2014)
pIC50: −log10 of the molar value.

Target: Human CYP17 (Homo sapiens (Human), UniProt P05093)
Assay: CYP17 Total SPA Assay
Type: biochemical
Conditions: microsomes from HEK2 cells stably transfected with CYP17; 3H-Pregnenolone 1 uM; NADPH 2 mM; 45 minutes at room temperature
Procedure: CYP17 Total SPA Assay The assays were performed in U-bottom 384-well optiplates. […] The reaction was initiated by the combination of the microsomes and substrates in wells containing compound. The reaction was incubated at room temperature for 45 minutes and terminated by adding 7.5 μl of 0.2N HCl to each well. […] The plate was sealed and incubated overnight with shaking at 4° C. The beads were allowed to settle in the plate for 1 hour and the plate read on a TOPCOUNT® (Perkin-Elmer) plate reader. […] The final concentration of reagents in the assays are NADPH, 2 mM; 3H-Pregnenolone, 1 uM; microsomes, 1.25 ug/ml; […] Dose response curves were generated to determine the concentration required inhibiting 50% of enzyme activity (IC50). Compounds were dissolved at 10 mM in dimethylsulfoxide (DMSO) and evaluated at eleven concentrations, each in duplicate. IC50 values were derived by non-linear regression analysis. Table 22 below lists the IC50 values for the following Examples of this invention measured in the Total CYP17 SPA Assay hereinabove.

Chain of Human CYP17 (P05093 whole entry): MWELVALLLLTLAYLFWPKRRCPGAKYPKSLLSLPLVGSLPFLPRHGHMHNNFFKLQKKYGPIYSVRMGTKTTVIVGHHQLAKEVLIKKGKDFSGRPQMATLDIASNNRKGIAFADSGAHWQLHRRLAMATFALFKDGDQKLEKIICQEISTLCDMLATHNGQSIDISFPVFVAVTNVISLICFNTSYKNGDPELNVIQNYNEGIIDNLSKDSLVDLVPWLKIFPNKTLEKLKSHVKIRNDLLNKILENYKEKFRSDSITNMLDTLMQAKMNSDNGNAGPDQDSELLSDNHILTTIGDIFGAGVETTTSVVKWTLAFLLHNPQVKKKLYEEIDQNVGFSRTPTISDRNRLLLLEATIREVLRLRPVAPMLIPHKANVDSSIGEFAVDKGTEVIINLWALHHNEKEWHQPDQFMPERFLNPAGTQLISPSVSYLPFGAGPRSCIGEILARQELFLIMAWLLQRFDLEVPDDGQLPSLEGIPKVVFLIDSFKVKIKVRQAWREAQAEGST

Point of comparison: `COc1cc(NS(=O)(=O)C2CC2)ccc1-c1cncnc1C` [Example 162, N-(3-methoxy-4-(4-methylpyrimidin-5-yl)phenyl)cyclopropanesulfonamide], pIC50 6.77. Against it:
- COc1cc(NS(C)(=O)=O)ccc1-c1cncn2cccc12 [Example 250, N-(3-methoxy-4-(pyrrolo[1,2-c]pyrimidin-4-yl)phenyl)methanesulfonamide] — within 0.2 log units, 6.92
- COc1cc(NS(=O)(=O)c2ccc(Cl)cc2)ccc1-c1cncnc1C [Example 172, 4-chloro-N-(3-methoxy-4-(4-methylpyrimidin-5-yl)phenyl)benzenesulfonamide] — within 0.2 log units, 6.93
- CS(=O)(=O)Nc1ccc(-c2cncc3ncccc23)c(OCCF)c1 [Example 239, N-(3-(2-fluoroethoxy)-4-(1,7-naphthyridin-5-yl)phenyl)methanesulfonamide] — 0.52 log units higher, 7.29
- COc1cc(NS(C)(=O)=O)ccc1-c1cncc2ccccc12 [Example 142, N-(4-(isoquinolin-4-yl)-3-methoxyphenyl)methanesulfonamide] — 1.41 log units higher, 8.18
- Cc1cc(NS(C)(=O)=O)ccc1-c1cnccc1-c1ccccc1 [Example 12, N-(3-methyl-4-(4-phenyl-3-pyridinyl)phenyl)methanesulfonamide] — 0.21 log units higher, 6.98
- COc1cc(NS(=O)(=O)c2cccc3ccccc23)ccc1-c1cncc2ccccc12 [Example 144, N-(4-(isoquinolin-4-yl)-3-methoxyphenyl)naphthalene-1-sulfonamide] — 1.19 log units higher, 7.96
- Cc1ccncc1-c1ccc(NS(C)(=O)=O)cc1OCC(F)(F)F [Example 24, N-(4-(4-methyl-3-pyridinyl)-3-(2,2,2-trifluoroethoxy)phenyl)methane sulfonamide] — 0.61 log units higher, 7.38
- COc1ccc(S(=O)(=O)Nc2ccc(-c3cncc4ccccc34)c(OC)c2)cc1 [Example 147, N-(4-(isoquinolin-4-yl)-3-methoxyphenyl)-4-methoxybenzenesulfonamide] — 1.80 log units higher, 8.57
- COc1cc(NS(=O)(=O)CCc2ccccc2)ccc1-c1cncnc1C [Example 169, N-(3-methoxy-4-(4-methylpyrimidin-5-yl)phenyl)-2-phenylethanesulfonamide] — within 0.2 log units, 6.92
- COc1cc(NS(=O)(=O)Cc2ccc(Cl)cc2)ccc1-c1cncnc1C [Example 173, 1-(4-chlorophenyl)-N-(3-methoxy-4-(4-methylpyrimidin-5-yl)phenyl)methanesulfonamide] — 1.70 log units higher, 8.47
- CS(=O)(=O)Nc1ccc(-c2cncc3ccccc23)c(OCCF)c1 [Example 234, N-(3-(2-fluoroethoxy)-4-(isoquinolin-4-yl)phenyl)methanesulfonamide] — 0.63 log units higher, 7.40
- COc1cc(NS(=O)(=O)CC(F)(F)F)ccc1-c1cncnc1C [Example 167, 2,2,2-trifluoro-N-(3-methoxy-4-(4-methylpyrimidin-5-yl)phenyl)ethanesulfonamide] — within 0.2 log units, 6.80
- COc1cc(NS(=O)(=O)c2cccc3cccnc23)ccc1-c1cncnc1C [Example 176, N-(3-methoxy-4-(4-methylpyrimidin-5-yl)phenyl)quinoline-8-sulfonamide] — within 0.2 log units, 6.93
- COc1cc(NS(=O)(=O)Cc2ccccc2)ccc1-c1cncnc1C [Example 168, N-(3-methoxy-4-(4-methylpyrimidin-5-yl)phenyl)-1-phenylmethanesulfonamide] — 1.25 log units higher, 8.02
- COc1cc(NS(=O)(=O)c2ccc3ccccc3c2)ccc1-c1cncnc1C [Example 175, N-(3-methoxy-4-(4-methylpyrimidin-5-yl)phenyl)naphthalene-2-sulfonamide] — 0.46 log units higher, 7.23
- CS(=O)(=O)Nc1ccc(-c2cnccc2Cl)c(OCCF)c1 [Example 236, N-(4-(4-chloropyridin-3-yl)-3-(2-fluoroethoxy)phenyl)methanesulfonamide] — within 0.2 log units, 6.76
- Cc1cc(NS(C)(=O)=O)ccc1-c1cnccc1Cl [Example 195, N-(4-(4-chloro-3-pyridinyl)-3-methylphenyl)methanesulfonamide] — 0.51 log units higher, 7.28
- COc1cc(NS(=O)(=O)c2ccccc2)ccc1-c1cncc2ccccc12 [Example 143, N-(4-(isoquinolin-4-yl)-3-methoxyphenyl)benzenesulfonamide] — 1.77 log units higher, 8.54
- COc1cc(NS(=O)(=O)C2CC2)ccc1-c1cncc2ccccc12 [Example 159, N-(4-(isoquinolin-4-yl)-3-methoxyphenyl)cyclopropanesulfonamide] — 1.44 log units higher, 8.21
- Cc1cc(NS(C)(=O)=O)ccc1-c1cnccc1OCC(F)(F)F [Example 198, N-(3-methyl-4-(4-(2,2,2-trifluoroethoxy)-3-pyridinyl)phenyl) methane sulfonamide] — 2.08 log units higher, 8.85
- COc1cc(NS(C)(=O)=O)ccc1-c1cnccc1C1CC1 [Example 225, N-(4-(4-cyclopropylpyridin-3-yl)-3-methoxyphenyl)methanesulfonamide] — 1.91 log units higher, 8.68
- CCCS(=O)(=O)Nc1ccc(-c2cncnc2C)c(OC)c1 [Example 163, N-(3-methoxy-4-(4-methylpyrimidin-5-yl)phenyl)propane-1-sulfonamide] — within 0.2 log units, 6.87
- COc1cc(NS(C)(=O)=O)ccc1-c1cncnc1C [Example 161, N-(3-methoxy-4-(4-methylpyrimidin-5-yl)phenyl)methanesulfonamide] — within 0.2 log units, 6.95
- Cc1ccncc1-c1ccc(NS(C)(=O)=O)cc1OCC(F)F [Example 23, N-(3-(2,2-difluoroethoxy)-4-(4-methyl-3-pyridinyl)phenyl)methane sulfonamide] — 0.72 log units higher, 7.49
- COc1cc(NS(=O)(=O)c2cccnc2)ccc1-c1cncnc1C [Example 166, N-(3-methoxy-4-(4-methylpyrimidin-5-yl)phenyl)pyridine-3-sulfonamide] — within 0.2 log units, 6.88
- COc1cc(NS(=O)(=O)c2cn(C)c(C)n2)ccc1-c1cncc2ccccc12 [Example 158, N-(4-(isoquinolin-4-yl)-3-methoxyphenyl)-1,2-dimethyl-1H-imidazole-4-sulfonamide] — within 0.2 log units, 6.93
- COc1cc(NS(=O)(=O)c2cccc3cccnc23)ccc1-c1cncc2ccccc12 [Example 154, N-(4-(isoquinolin-4-yl)-3-methoxyphenyl)quinoline-8-sulfonamide] — 0.80 log units higher, 7.57
- COc1ccc(S(=O)(=O)Nc2ccc(-c3cncnc3C)c(OC)c2)cc1 [Example 170, 4-methoxy-N-(3-methoxy-4-(4-methylpyrimidin-5-yl)phenyl)benzenesulfonamide] — 0.48 log units higher, 7.25
- CCS(=O)(=O)Nc1ccc(-c2cncc3ccccc23)c(OC)c1 [Example 156, N-(4-(isoquinolin-4-yl)-3-methoxyphenyl)ethanesulfonamide] — 1.32 log units higher, 8.09
- COc1cc(NS(=O)(=O)CC(C)C)ccc1-c1cncnc1C [Example 164] — 0.23 log units higher, 7.00
- CS(=O)(=O)Nc1ccc(-c2cncc3ccccc23)c(C(F)(F)F)c1 [Example 241, N-(4-(isoquinolin-4-yl)-3-(trifluoromethyl)phenyl)methanesulfonamide] — 0.55 log units higher, 7.32
- CS(=O)(=O)Nc1ccc(-c2cnccc2C2CC2)c(C(F)(F)F)c1 [Example 243, N-(4-(4-cyclopropylpyridin-3-yl)-3-(trifluoromethyl)phenyl)methanesulfonamide] — 0.64 log units higher, 7.41
- COc1ccncc1-c1ccc(NS(C)(=O)=O)cc1OCC(F)(F)F [Example 233, N-(4-(4-methoxypyridin-3-yl)-3-(2,2,2-trifluoroethoxy)phenyl)methanesulfonamide] — 0.48 log units higher, 7.25
- COc1cc(NS(=O)(=O)c2ccccn2)ccc1-c1cncc2ccccc12 [Example 160, N-(4-(isoquinolin-4-yl)-3-methoxyphenyl)pyridine-2-sulfonamide] — 1.45 log units higher, 8.22
- CS(=O)(=O)Nc1ccc(-c2cncc3ccccc23)c(OCC(F)(F)F)c1 [Example 232, N-(4-(isoquinolin-4-yl)-3-(2,2,2-trifluoroethoxy)phenyl)methanesulfonamide] — 0.46 log units higher, 7.23
- CCc1ncncc1-c1ccc(NS(C)(=O)=O)cc1OC [Example 218, N-(4-(4-ethylpyrimidin-5-yl)-3-methoxyphenyl) methanesulfonamide] — 0.54 log units higher, 7.31
- CS(=O)(=O)Nc1ccc(-c2cncc3ccccc23)c(OC(F)(F)F)c1 [Example 228, N-(4-(isoquinolin-4-yl)-3-(trifluoromethoxy)phenyl)methanesulfonamide] — 1.72 log units higher, 8.49
- Cc1ccncc1-c1ccc(NS(=O)(=O)C2CC2)cc1OCC(F)(F)F [Example 184] — 1.34 log units higher, 8.11
- Cc1ccncc1-c1ccc(NS(C)(=O)=O)cc1C(F)(F)F [Example 240, N-(4-(4-methylpyridin-3-yl)-3-(trifluoromethyl)phenyl)methanesulfonamide] — 0.82 log units higher, 7.59
- COc1cc(NS(C)(=O)=O)ccc1-c1cncnc1C1CCCCC1 [Example 221, N-(4-(4-cyclohexylpyrimidin-5-yl)-3-methoxyphenyl)methanesulfonamide] — 0.23 log units higher, 7.00
- COc1cc(NS(=O)(=O)c2ccccc2)ccc1-c1cncnc1C [Example 165, N-(3-methoxy-4-(4-methylpyrimidin-5-yl)phenyl)benzenesulfonamide] — 1.50 log units higher, 8.27
- COc1cc(NS(C)(=O)=O)ccc1-c1cncnc1OC [Example 245] — 0.47 log units higher, 7.24
- COc1cc(NS(C)(=O)=O)ccc1-c1cncnc1C(C)C [Example 220, N-(4-(4-isopropylpyrimidin-5-yl)-3-methoxyphenyl) methanesulfonamide] — 0.22 log units higher, 6.99
